Experimental data as given in patent publication US8426408B2, “Pyrimidine inhibitors of kinases” (AbbVie Inc., priority 2009, dated 2013).

Key:
Aurora B = target: T1, Aurora B (Homo sapiens, UniProt Q96GD4); assay: Aurora B enzyme inhibition (time-resolved fluorescence, histone H3 peptide); format: biochemical; settings: 1 mM ATP
T1 construct: Active Aurora B enzyme (recombinant residues 1-344)
Outline: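 IC50s came from an exponential fit of inhibition against inhibitor concentration, with phosphorylation read as the 665/615 nm time-resolved fluorescence ratio after EDTA stop using Eu-anti-phospho-H3 and SA-APC. The 1 h reaction used Aurora B 1-344 plus GST-INCENP, biotin-histone H3 1-21 peptide and 1 mM ATP in pH 7.4 HEPES buffer.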

NCI-H1299 cells = assay: Induction of polyploidy in H1299; format: cell-based, Human; settings: NCI-H1299, 48 hours
Protocol: To determine the induction of polyploidy in H1299 cells, NCI-H1299 were seeded (4K/well) into 96-well culture plates (tissue culture grade, black, flat-clear bottom) and incubated overnight to produce cell-to-plate adherence. Inhibitors at varying concentrations were added into duplicate wells containing cells and culture media (RPMI 1640, 10% fetal calf serum) and incubated at 37 C for 48 hours. The plates were then washed with PBS and the adherent cells fixed by incubating with 3% formalin for 1 hour. After washing four times with PBS, the cells were then stained with Hoechst and subjected to fluorescent (360 i/460e) microscopic high content analysis to determine the effect of inhibitors on nuclear size. Polyploid cells (≧4N) were defined as those having nuclear area>750μ^2. Potency was expressed as the concentration of inhibitor necessary to induce polyploidy in 15% of cells (EC15) and was calculated from least squares analysis of the log dose-response.

KDR = KDR (Homo sapiens, UniProt P35968); assay: KDR HTRF in vitro kinase assay; format: biochemical; set-up: purified enzyme (His6-KDR 789-1354, MW 63 kD); His6 (N); settings: 1 mM ATP; read-out: KDR enzyme inhibition data (Ki)
KDR, sequence (P35968 789-1354): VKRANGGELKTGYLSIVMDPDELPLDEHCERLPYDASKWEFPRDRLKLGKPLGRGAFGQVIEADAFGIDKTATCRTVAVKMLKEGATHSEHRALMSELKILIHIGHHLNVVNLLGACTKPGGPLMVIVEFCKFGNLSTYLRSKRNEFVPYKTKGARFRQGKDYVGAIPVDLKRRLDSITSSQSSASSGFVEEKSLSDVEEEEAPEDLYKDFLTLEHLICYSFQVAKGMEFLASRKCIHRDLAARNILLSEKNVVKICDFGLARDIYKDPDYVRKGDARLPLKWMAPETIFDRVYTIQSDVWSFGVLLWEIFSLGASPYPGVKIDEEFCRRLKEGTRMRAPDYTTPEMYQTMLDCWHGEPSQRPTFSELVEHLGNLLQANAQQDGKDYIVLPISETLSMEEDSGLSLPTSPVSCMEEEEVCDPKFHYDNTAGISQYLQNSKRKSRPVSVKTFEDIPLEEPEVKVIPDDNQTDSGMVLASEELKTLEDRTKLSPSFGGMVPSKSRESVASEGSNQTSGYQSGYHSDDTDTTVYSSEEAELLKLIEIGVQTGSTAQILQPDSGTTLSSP
Outline: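 His6-KDR 789-1354 (7 ng/well) with 0.5 μM biotinylated peptide substrate and 1 mM ATP in HEPES pH 7.1, MgCl2/MnCl2, 60 min at room temperature. EDTA-quenched, detected by streptavidin-XL-665 plus Eu-kryptate anti-phosphotyrosine HTRF after 3 h; IC50 from 620/665 nm ratio.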

Aurora A = target: T2, Aurora A (Homo sapiens, UniProt O14965); assay: Aurora A enzyme inhibition (time-resolved fluorescence, STK substrate-2); format: biochemical; settings: 1 mM ATP
T2 sequence (O14965 1-403): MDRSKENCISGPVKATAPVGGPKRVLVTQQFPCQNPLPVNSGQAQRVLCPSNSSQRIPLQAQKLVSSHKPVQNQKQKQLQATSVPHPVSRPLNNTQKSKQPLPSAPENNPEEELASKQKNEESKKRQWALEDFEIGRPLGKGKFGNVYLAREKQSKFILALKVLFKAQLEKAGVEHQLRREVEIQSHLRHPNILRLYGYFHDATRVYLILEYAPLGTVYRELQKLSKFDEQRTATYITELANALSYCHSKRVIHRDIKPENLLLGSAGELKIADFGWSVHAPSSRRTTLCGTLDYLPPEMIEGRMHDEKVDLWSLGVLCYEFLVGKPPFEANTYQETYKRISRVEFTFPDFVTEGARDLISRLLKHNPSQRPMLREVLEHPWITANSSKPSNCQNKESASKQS
Outline: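 Phosphorylation of biotinylated STK substrate-2 at 1 mM ATP, 1 h, Hepes buffer pH 7.4 (MgCl2, sodium orthovanadate, Triton X-100). After EDTA quench, 665/615 nm time-resolved fluorescence ratio read via europium anti-phospho antibody and SA-XL665; IC50 from exponential fit versus inhibitor concentration.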

T1 sequence (Q96GD4 whole entry, the tested form may be a part): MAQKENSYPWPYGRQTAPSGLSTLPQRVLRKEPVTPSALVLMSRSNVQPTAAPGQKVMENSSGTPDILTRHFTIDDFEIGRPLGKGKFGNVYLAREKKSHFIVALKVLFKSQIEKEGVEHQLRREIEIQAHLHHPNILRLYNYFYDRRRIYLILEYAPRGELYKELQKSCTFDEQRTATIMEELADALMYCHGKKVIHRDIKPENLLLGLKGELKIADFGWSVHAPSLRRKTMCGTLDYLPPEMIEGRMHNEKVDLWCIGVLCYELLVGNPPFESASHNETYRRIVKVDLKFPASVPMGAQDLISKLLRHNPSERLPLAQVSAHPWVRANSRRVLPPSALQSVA
T1 sequence (Q9NQS7 826-918 partner limits assumed): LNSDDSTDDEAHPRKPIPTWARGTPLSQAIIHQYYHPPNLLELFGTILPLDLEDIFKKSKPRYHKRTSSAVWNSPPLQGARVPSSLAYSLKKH

| Ki (Aurora B) | Ki (KDR) | Ki (Aurora A) | SMILES | EC15 (concentration of inhibitor necessary to induce polyploidy in 15% of cells) (NCI-H1299 cells) |
| --- | --- | --- | --- | --- |
| < 100 nM | < 100 nM | < 100 nM | Cn1cc(Nc2ncc(C(F)(F)F)c(N[C@@H]3[C@H](C(N)=O)[C@H]4C=C[C@@H]3C4)n2)cn1.Cn1cc(Nc2ncc(C(F)(F)F)c(N[C@H]3[C@@H](C(N)=O)[C@@H]4C=C[C@H]3C4)n2)cn1 (mixture of isomers) [Example 10, (1S,2S,3R,4R)-3-{[2-[(1-methyl-1H-pyrazol-4-yl)amino]-5-(trifluoromethyl)pyrimidin-4-yl]amino}bicyclo[2.2.1]hept-5-ene-2-carboxamide and (1R,2R,3S,4S)-3-{[2-[(1-methyl-1H-pyrazol-4-yl)amino]-5-(trifluoromethyl)pyrimidin-4-yl]amino}bicyclo[2.2.1]hept-5-ene-2-carboxamide] | A (“A” represents an EC15 of less than 0.1 μM) |
| < 100 nM | < 100 nM | < 100 nM | CC(O)Cn1cc(Nc2ncc(C(F)(F)F)c(NC3C4C=CC(C4)C3C(N)=O)n2)cn1 (mixture of isomers) [Example 19, (1R,2R,3S,4S)-3-{[2-({1-[(2R)-2-hydroxypropyl]-1H-pyrazol-4-yl}amino)-5-(trifluoromethyl)pyrimidin-4-yl]amino}bicyclo[2.2.1]hept-5-ene-2-carboxamide and (1S,2S,3R,4R)-3-{[2-({1-[(2R)-2-hydroxypropyl]-1H-pyrazol-4-yl}amino)-5-(trifluoromethyl)pyrimidin-4-yl]amino}bicyclo[2.2.1]hept-5-ene-2-carboxamide] | A (“A” represents an EC15 of less than 0.1 μM) |
| < 100 nM | < 100 nM | < 100 nM | Cn1cc(Nc2ncc(C(F)(F)F)c(N[C@@H]3[C@@H]4CC[C@@H](C4)[C@@H]3C(N)=O)n2)cn1.Cn1cc(Nc2ncc(C(F)(F)F)c(N[C@H]3[C@H]4CC[C@H](C4)[C@H]3C(N)=O)n2)cn1 (mixture of isomers) [Example 20, (1S,2S,3R,4R)-3-{[2-[(1-methyl-1H-pyrazol-4-yl)amino]-5-(trifluoromethyl)pyrimidin-4-yl]amino}bicyclo[2.2.1]heptane-2-carboxamide and (1R,2R,3S,4S)-3-{[2-[(1-methyl-1H-pyrazol-4-yl)amino]-5-(trifluoromethyl)pyrimidin-4-yl]amino}bicyclo[2.2.1]heptane-2-carboxamide] | A (“A” represents an EC15 of less than 0.1 μM) |
| 100 to 1000 nM | 100 to 1000 nM | < 100 nM | CC(O)Cn1cc(Nc2ncc(C(F)(F)F)c(NC3C4CCC(C4)C3C(N)=O)n2)cn1 (mixture of isomers) [Example 21, (1S,2R,3S,4R)-3-{[2-({1-[(2R)-2-hydroxypropyl]-1H-pyrazol-4-yl}amino)-5-(trifluoromethyl)pyrimidin-4-yl]amino}bicyclo[2.2.1]heptane-2-carboxamide and (1R,2S,3R,4S)-3-{[2-({1-[(2R)-2-hydroxypropyl]-1H-pyrazol-4-yl}amino)-5-(trifluoromethyl)pyrimidin-4-yl]amino}bicyclo[2.2.1]heptane-2-carboxamide] | A (“A” represents an EC15 of less than 0.1 μM) |
| < 100 nM | < 100 nM | < 100 nM | CCn1cc(Nc2ncc(C(F)(F)F)c(N[C@@H]3[C@H](C(N)=O)[C@H]4C=C[C@@H]3C4)n2)cn1.CCn1cc(Nc2ncc(C(F)(F)F)c(N[C@H]3[C@@H](C(N)=O)[C@@H]4C=C[C@H]3C4)n2)cn1 (mixture of isomers) [Example 22, (1S,2S,3R,4R)-3-{[2-[(1-ethyl-1H-pyrazol-4-yl)amino]-5-(trifluoromethyl)pyrimidin-4-yl]amino}bicyclo[2.2.1]hept-5-ene-2-carboxamide and (1R,2R,3S,4S)-3-{[2-[(1-ethyl-1H-pyrazol-4-yl)amino]-5-(trifluoromethyl)pyrimidin-4-yl]amino}bicyclo[2.2.1]hept-5-ene-2-carboxamide] | A (“A” represents an EC15 of less than 0.1 μM) |
| < 100 nM | < 100 nM | < 100 nM | CCn1cc(Nc2ncc(C(F)(F)F)c(N[C@@H]3[C@H]4CC[C@H](C4)[C@@H]3C(N)=O)n2)cn1.CCn1cc(Nc2ncc(C(F)(F)F)c(N[C@H]3[C@@H]4CC[C@@H](C4)[C@H]3C(N)=O)n2)cn1 (mixture of isomers) [Example 24, (1R,2S,3R,4S)-3-{[2-[(1-ethyl-1H-pyrazol-4-yl)amino]-5-(trifluoromethyl)pyrimidin-4-yl]amino}bicyclo[2.2.1]heptane-2-carboxamide and (1S,2R,3S,4R)-3-{[2-[(1-ethyl-1H-pyrazol-4-yl)amino]-5-(trifluoromethyl)pyrimidin-4-yl]amino}bicyclo[2.2.1]heptane-2-carboxamide] | A (“A” represents an EC15 of less than 0.1 μM) |
| < 100 nM | < 100 nM | < 100 nM | CCn1cc(Nc2ncc(Br)c(N[C@@H]3[C@H](C(N)=O)[C@H]4C=C[C@@H]3C4)n2)cn1.CCn1cc(Nc2ncc(Br)c(N[C@H]3[C@@H](C(N)=O)[C@@H]4C=C[C@H]3C4)n2)cn1 (mixture of isomers) [Example 31, (1S,2S,3R,4R)-3-({5-bromo-2-[(1-ethyl-1H-pyrazol-4-yl)amino]pyrimidin-4-yl}amino)bicyclo[2.2.1]hept-5-ene-2-carboxamide and (1R,2R,3S,4S)-3-({5-bromo-2-[(1-ethyl-1H-pyrazol-4-yl)amino]pyrimidin-4-yl}amino)bicyclo[2.2.1]hept-5-ene-2-carboxamide] | A (“A” represents an EC15 of less than 0.1 μM) |
| < 100 nM | < 100 nM | < 100 nM | Cn1cc(Nc2ncc(Cl)c(N[C@@H]3[C@@H]4CC[C@@H](C4)[C@@H]3C(N)=O)n2)cn1.Cn1cc(Nc2ncc(Cl)c(N[C@H]3[C@H]4CC[C@H](C4)[C@H]3C(N)=O)n2)cn1 (mixture of isomers) [Example 113, (1R,2R,3S,4S)-3-({5-chloro-2-[(1-methyl-1H-pyrazol-4-yl)amino]pyrimidin-4-yl}amino)bicyclo[2.2.1]heptane-2-carboxamide and (1S,2S,3R,4R)-3-({5-chloro-2-[(1-methyl-1H-pyrazol-4-yl)amino]pyrimidin-4-yl}amino)bicyclo[2.2.1]heptane-2-carboxamide] | A (“A” represents an EC15 of less than 0.1 μM) |
| < 100 nM | < 100 nM | < 100 nM | CCn1cc(Nc2ncc(Cl)c(N[C@@H]3[C@@H]4CC[C@@H](C4)[C@@H]3C(N)=O)n2)cn1.CCn1cc(Nc2ncc(Cl)c(N[C@H]3[C@H]4CC[C@H](C4)[C@H]3C(N)=O)n2)cn1 (mixture of isomers) [Example 114, (1R,2R,3S,4S)-3-({5-chloro-2-[(1-ethyl-1H-pyrazol-4-yl)amino]pyrimidin-4-yl}amino)bicyclo[2.2.1]heptane-2-carboxamide and (1S,2S,3R,4R)-3-({5-chloro-2-[(1-ethyl-1H-pyrazol-4-yl)amino]pyrimidin-4-yl}amino)bicyclo[2.2.1]heptane-2-carboxamide] | A (“A” represents an EC15 of less than 0.1 μM) |
